Measured values as given in the supplement of paper PMC4862054.

Columns and labels:
Conditions in all cases: incubation time: 72 h
CAL-148 [1] = test: normalised viability (% of control), CellTiter-Blue; higher = more viable cells (about 100 = DMSO control)
Description: (§1)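 DSRT, CellTiter-Blue viability, 72 h incubation. Signal is normalised to DMSO and benzethonium chloride controls. Value is the normalised response at dose 9.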

CAL-51 = test: as above
Description: as §1

CAL-85-1 [2] = test: as above
Description: as §1

DU-4475 [3] = test: as above
Description: as §1

HDQ-P1 [4] = test: as above
Description: as §1

MDA-MB-453 = test: as above
Description: as §1

HCC1599 [5] = test: normalised viability (% of control), CellTiter-Blue; higher = more viable cells (100 = DMSO, 0 = benzethonium chloride kill control)
Description: (§2)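 DSRT, CellTiter-Blue viability, 72 h incubation. Signal is normalised to DMSO and benzethonium chloride controls. Value is the normalised response at dose 1.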

HCC1937 [6] = test: as above
Description: as §2

Hs578T [7] = test: as above
Description: as §2

MDA-MB-436 [8] = test: as above
Description: as §2

BT-474 = test: drug sensitivity score (DSS), CellTiter-Blue viability (DSS (AUC-based score)); higher = stronger viability inhibition; extreme values may be limits of the assay
How it was run: (§3)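 Cells from breast cancer lines were grown with compound for 72 h in 384-well plates, using a 5- or 9-concentration series. CellTiter-Blue fluorescence (560/590 nm) served as the viability readout, normalised plate by plate to 0.1 % DMSO and a positive kill control. A drug sensitivity score was computed as the area under the fitted dose-response curve.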

BT-549 = test: as above
How it was run: as §3

CAL-120 = test: as above
How it was run: as §3

CAL-148 [9] = test: as above
How it was run: as §3

CAL-85-1 [10] = test: as above
How it was run: as §3

DU-4475 [11] = test: as above
How it was run: as §3

HCC1143 = test: as above
How it was run: as §3

HCC1599 [12] = test: as above
How it was run: as §3

HCC1937 [13] = test: as above
How it was run: as §3

HDQ-P1 [14] = test: as above
How it was run: as §3

Hs578T [15] = test: as above
How it was run: as §3

MDA-MB-231 = test: as above
How it was run: as §3

MDA-MB-436 [16] = test: as above
How it was run: as §3

MDA-MB-468 = test: as above
How it was run: as §3

MFM-223 = test: as above
How it was run: as §3

SK-BR-3 = test: as above
How it was run: as §3

SMILES | normalised viability (CAL-148 [1]; 1000 nM) | normalised viability (CAL-51; 1000 nM) | normalised viability (CAL-85-1 [2]; 1000 nM) | normalised viability (DU-4475 [3]; 1000 nM) | drug sensitivity score (BT-474) | drug sensitivity score (BT-549) | drug sensitivity score (CAL-120) | drug sensitivity score (CAL-148 [9]) | drug sensitivity score (CAL-85-1 [10]) | drug sensitivity score (DU-4475 [11]) | drug sensitivity score (HCC1143) | drug sensitivity score (HCC1599 [12]) | drug sensitivity score (HCC1937 [13]) | drug sensitivity score (HDQ-P1 [14]) | drug sensitivity score (Hs578T [15]) | drug sensitivity score (MDA-MB-231) | drug sensitivity score (MDA-MB-436 [16]) | drug sensitivity score (MDA-MB-468) | drug sensitivity score (MFM-223) | drug sensitivity score (SK-BR-3) | further results
C=CC(=O)N1CCC[C@@H](n2nc(-c3ccc(Oc4ccccc4)cc3)c3c(N)ncnc32)C1 | 76.3% | 86.5% | 49.1% | 97.8% | 12.7 | 0 | 0 | 0 | 5.07 | 0 | 0 | 0 | 0 | 1.18 | 0 | 0 | 0 | 3.83 | 0 | 18.7 | normalised viability (HDQ-P1 [4]; 1000 nM): 69.1%; normalised viability (MDA-MB-453; 1000 nM): 26.5%; normalised viability (HCC1599 [5]; 0.1 nM): 105%; normalised viability (HCC1937 [6]; 0.1 nM): 93.3%; normalised viability (Hs578T [7]; 0.1 nM): 119%; normalised viability (MDA-MB-436 [8]; 0.1 nM): 91%
CC(=O)Nc1cccc(-n2c(=O)n(C3CC3)c(=O)c3c(Nc4ccc(I)cc4F)n(C)c(=O)c(C)c32)c1 | – | – | – | – | 0 | 0 | 8.88 | 0 | 12.1 | 39.6 | 9.72 | 8.87 | 0 | 12.7 | 0 | 21.7 | 0 | 2.67 | 0 | 0 | normalised viability (CAL-148 [1]; 250 nM): 87.6%; normalised viability (CAL-51; 250 nM): 60.5%; normalised viability (CAL-85-1 [2]; 250 nM): 31.2%; normalised viability (DU-4475 [3]; 250 nM): -1.53%; normalised viability (HDQ-P1 [4]; 250 nM): 63.6%; normalised viability (MDA-MB-453; 250 nM): 50.9%; normalised viability (HCC1599 [5]; 0.025 nM): 104%; normalised viability (HCC1937 [6]; 0.025 nM): 93.7%; normalised viability (Hs578T [7]; 0.025 nM): 113%; normalised viability (MDA-MB-436 [8]; 0.025 nM): 101%
CCc1cncnc1N1CCN(Cc2nc3ccc(C(F)(F)F)cc3[nH]2)CC1 | – | – | – | – | 0 | 0 | 0 | 0 | 0 | 0 | 0 | 0 | 0 | 0 | 0 | 0 | 0 | 0 | 0 | 0 | normalised viability (CAL-148 [1]; 10000 nM): 108%; normalised viability (CAL-51; 10000 nM): 64%; normalised viability (CAL-85-1 [2]; 10000 nM): 110%; normalised viability (DU-4475 [3]; 10000 nM): 91.8%; normalised viability (HDQ-P1 [4]; 10000 nM): 110%; normalised viability (MDA-MB-453; 10000 nM): 54.6%; normalised viability (HCC1599 [5]; 1 nM): 82.6%; normalised viability (HCC1937 [6]; 1 nM): 86.6%; normalised viability (Hs578T [7]; 1 nM): 106%; normalised viability (MDA-MB-436 [8]; 1 nM): 106%
Cc1cnc(NC(=O)Nc2cc(Br)c(C)cc2OC[C@@H]2CNCCO2)cn1 | 56.7% | 89.3% | 68.3% | 72% | 0 | 0 | 0 | 0 | 0 | 0 | 0 | 2.32 | 5.26 | 0 | 1.59 | 0 | 3.49 | 0 | 0 | 1.9 | normalised viability (HDQ-P1 [4]; 1000 nM): 106%; normalised viability (MDA-MB-453; 1000 nM): 65.2%; normalised viability (HCC1599 [5]; 0.1 nM): 114%; normalised viability (HCC1937 [6]; 0.1 nM): 93.6%; normalised viability (Hs578T [7]; 0.1 nM): 106%; normalised viability (MDA-MB-436 [8]; 0.1 nM): 119%
NCCCNCCSP(=O)(O)O [Amifostine] | – | – | – | – | 0 | 0 | 0 | 0 | 0 | 0 | 0 | 3.86 | 0 | 0 | 0 | 0 | 0 | 0 | 0 | 0 | normalised viability (CAL-148 [1]; 10000 nM): 95.2%; normalised viability (CAL-51; 10000 nM): 108%; normalised viability (CAL-85-1 [2]; 10000 nM): 89.9%; normalised viability (DU-4475 [3]; 10000 nM): 90.6%; normalised viability (HDQ-P1 [4]; 10000 nM): 100%; normalised viability (MDA-MB-453; 10000 nM): 86.4%; normalised viability (HCC1599 [5]; 1 nM): 110%; normalised viability (HCC1937 [6]; 1 nM): 91.8%; normalised viability (Hs578T [7]; 1 nM): 107%; normalised viability (MDA-MB-436 [8]; 1 nM): 102%
CC[C@@H]1C(=O)N(C)c2cnc(Nc3ccc(C(=O)NC4CCN(C)CC4)cc3OC)nc2N1C1CCCC1 [BI 2536] | 44.3% | 8.2% | 61.6% | 44.9% | 0 | 21.3 | 21.6 | 19.7 | 14.7 | 19.3 | 13.2 | 0 | 22.8 | 5.37 | 8.18 | 16.4 | 7.37 | 15 | 19 | 25.6 | normalised viability (HDQ-P1 [4]; 1000 nM): 86.2%; normalised viability (MDA-MB-453; 1000 nM): 25.2%; normalised viability (HCC1599 [5]; 0.1 nM): 83.2%; normalised viability (HCC1937 [6]; 0.1 nM): 86.5%; normalised viability (Hs578T [7]; 0.1 nM): 122%; normalised viability (MDA-MB-436 [8]; 0.1 nM): 112%
CC[C@H](Nc1ncnc2[nH]cnc12)c1nc2cccc(F)c2c(=O)n1-c1ccccc1 [CAL-101] | – | – | – | – | 0 | 1.74 | 1.02 | 0 | 0 | 2.91 | 1.48 | 3.9 | 0 | 2.23 | 0 | 0 | 0 | 2.46 | 0 | 2.96 | normalised viability (CAL-148 [1]; 10000 nM): 88.1%; normalised viability (CAL-51; 10000 nM): 57.3%; normalised viability (CAL-85-1 [2]; 10000 nM): 47.5%; normalised viability (DU-4475 [3]; 10000 nM): -0.99%; normalised viability (HDQ-P1 [4]; 10000 nM): 61.3%; normalised viability (MDA-MB-453; 10000 nM): 67.4%; normalised viability (HCC1599 [5]; 1 nM): 82.4%; normalised viability (HCC1937 [6]; 1 nM): 121%; normalised viability (Hs578T [7]; 1 nM): 118%; normalised viability (MDA-MB-436 [8]; 1 nM): 116%
